Earlier results on 24 substances are cited in PMC4047818 (Biochemistry, 2014).

One data set concerns insulin receptor. Also noted: method as in 24 sources, one per row (each row's own in cited_ref): ref [58] = [58]; PMID 18048361; doi:10.1074/jbc.M709220200; Gauguin L.; Klaproth B.; Sajid W.; Andersen A. S.; McNeil K. A.; Forbes B. E.; De Meyts P. ( 2008 ) Structural basis for the lower affinity of the insulin-like growth factors for the insulin rec ||| ref [59] = [59]; PMID 9148904; doi:10.1074/jbc.272.20.12978; Kristensen C.; Kjeldsen T.; Wiberg F. C.; Schaffer L.; Hach M.; Havelund S.; Bass J.; Steiner D. F.; Andersen A. S. ( 1997 ) Alanine scanning mutagenesis of insulin . J. Biol. Chem. 272 , 1297 ||| ref [33] = [33]; PMID 17316105; doi:10.1089/dia.2006.0035; Becker R. H. A. ( 2007 ) Insulin glulisine complementing basal insulins: A review of structure and activity . Diabetes Technol. Ther. 9 , 109 – 121 . 17316105 10.1089/dia.2006.0035 ||| ref [60],[61] = [60]; PMID 3541911; doi:10.1042/bj2380345; Bajaj M.; Blundell T. L.; Horuk R.; Pitts J. E.; Wood S. P.; Gowan L. K.; Schwabe C.; Wollmer A.; Gliemann J.; Gammeltoft S. ( 1986 ) Coypu Insulin: Primary Structure, Conformation and Biolog || [61]; PMID 11445250; doi:10.1016/s0196-9781(01)00423-5; Conlon J. M. ( 2001 ) Evolution of the insulin molecule: Insights into structure-activity and phylogenetic relationships . Peptides 22 , 1183 – 1193 . 11445250 10.1016/s0196-9781(01)00423-5 ||| ref [66] = [66]; PMID 2268358; doi:10.1016/s0006-291x(05)80882-4; Burke G. T.; Hu S. Q.; Ohta N.; Schwartz G. P.; Zong L.; Katsoyannis P. G. ( 1990 ) Superactive insulins . Biochem. Biophys. Res. Commun. 173 , 982 – 987 . 2268358 10.1016/s0006-291x(05)80882-4 ||| ... The conditions noted are these: for relative affinity: insulin = 100.

Data set [1] addresses insulin receptor (Homo sapiens) (UniProt P06213). Nature of the data set: radioligand binding.

Like-named read-outs stand apart in the source and are kept apart here. Some results are limits rather than exact numbers.

UniProt P06213, sequence (P06213 763-1382): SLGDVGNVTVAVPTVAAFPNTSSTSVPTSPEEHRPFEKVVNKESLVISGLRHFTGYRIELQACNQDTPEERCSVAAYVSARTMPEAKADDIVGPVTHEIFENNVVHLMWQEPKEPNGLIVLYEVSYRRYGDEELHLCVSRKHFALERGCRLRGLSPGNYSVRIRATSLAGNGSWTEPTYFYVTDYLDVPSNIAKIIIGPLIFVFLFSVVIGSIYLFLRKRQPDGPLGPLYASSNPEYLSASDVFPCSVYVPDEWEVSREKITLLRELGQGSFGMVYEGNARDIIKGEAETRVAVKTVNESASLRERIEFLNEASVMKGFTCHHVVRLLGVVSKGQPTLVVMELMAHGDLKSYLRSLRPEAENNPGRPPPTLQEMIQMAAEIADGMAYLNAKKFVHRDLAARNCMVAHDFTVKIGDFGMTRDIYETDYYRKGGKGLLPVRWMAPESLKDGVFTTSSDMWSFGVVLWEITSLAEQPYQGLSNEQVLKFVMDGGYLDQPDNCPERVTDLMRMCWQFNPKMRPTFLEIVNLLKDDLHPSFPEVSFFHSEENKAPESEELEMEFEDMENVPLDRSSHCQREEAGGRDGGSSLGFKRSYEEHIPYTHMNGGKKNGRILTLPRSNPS
insulin, sequence (P01308 90-110): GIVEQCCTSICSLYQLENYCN

Take “DKPwinsulin: monomeric insulin analogue containing three substitutions in the B-chain (AspB10, LysB28, ProB29)”: in the data set on insulin receptor (ref (15)), the relative affinity was 160%.

With “[AlaB1]winsulin: literature insulin analogue, Ala at B1”, the relative affinity with insulin receptor (ref (6)) is on record as 79%.

Take “[AlaB2]winsulin: literature insulin analogue, Ala at B2”: the relative affinity with insulin receptor (ref (6)) is on record as 110%.

With “[AlaB3]-insulin: literature insulin analogue, Ala at B3”, the relative affinity in the data set with insulin receptor (ref (6)) is 134%. Besides, the binding affinity in the data set with insulin receptor (relative to HI, ref [59]) is listed as 134%.

On to “[AlaB4]winsulin: literature insulin analogue, Ala at B4”, for which the relative affinity in the data set with insulin receptor (ref (6)) is listed as 54%.

On to “[AlaB5]-insulin: literature insulin analogue, Ala at B5”, for which, in the data set on insulin receptor (ref (9)), the relative affinity is listed as 31%.

Take “[AlaB5]DKPwinsulin: DKP-insulin analogue, Ala at B5”: in the data set on insulin receptor (ref (13)), the relative affinity is reported as 129%.

In the case of “[AlaB6]winsulin: literature insulin analogue, Ala at B6”, the relative affinity with insulin receptor (ref (6, 14)) was 1.4%.

In the case of “[ArgB5]winsulin: insulin with naturally occurring ArgB5 mutation”, the relative affinity with insulin receptor (ref (10)) is 40%.

“[AsnB5]winsulin: literature insulin analogue, Asn at B5”: the relative affinity in the data set on insulin receptor (ref (12)) was 46%.

For the substance “[AspB5]-insulin: literature insulin analogue, Asp at B5”, in the data set on insulin receptor (ref (12)), the relative affinity is 0.4%. In the data set on insulin receptor (relative to HI, ref [66]), the binding affinity is on record as 0.4%.

“[Cys(B4–B10),desB30]-insulin: literature insulin analogue with an additional B4–B10 disulfide bond, desB30”: the relative affinity with insulin receptor (ref (8)) was 132%. Moreover, the affinity in the data set on insulin receptor (relative to HI, ref [31]) is given as 130%.

With “[GlyB6]winsulin: literature insulin analogue, Gly at B6”, the relative affinity with insulin receptor (ref (14)) is 0.052%.

In the case of “[LeuB8,desB30]winsulin: literature insulin analogue, Leu at B8, desB30”, the relative affinity in the data set on insulin receptor (ref (18)) is less than 0.2%.

Take “[MetB6]winsulin: literature insulin analogue, Met at B6”: the relative affinity with insulin receptor (ref (14)) is 15%.

Turning to “[PheB6]winsulin: literature insulin analogue, Phe at B6”, the relative affinity in the data set on insulin receptor (ref (14)) is recorded as 10%.

For “[ProB3]-insulin: literature insulin analogue, Pro at B3”, the relative affinity in the data set with insulin receptor (ref (7)) is on record as 54%. The binding affinity in the data set on insulin receptor (relative to HI, ref [58]) was 54%.

In the case of “[SerB3]-insulin: literature insulin analogue, Ser at B3”, the relative affinity in the data set on insulin receptor (ref (7)) was 97%. The binding affinity in the data set on insulin receptor (relative to HI, ref [58]) was 97%.

In the case of “[SerB8,desB30]winsulin: literature insulin analogue, Ser at B8, desB30”, the relative affinity in the data set with insulin receptor (ref (18)) is listed as 23%. The “IR affinity relative to HI” value in the data set on insulin receptor (published analogues, ref Table S5 of the Supporting Information) is listed as 23%.

“[SerB8]DKPwinsulin: DKP-insulin analogue, Ser at B8”: the relative affinity with insulin receptor (ref (15, 17)) was 90%.

Take “[ThrB8,desB30]winsulin: literature insulin analogue, Thr at B8, desB30”: the relative affinity in the data set with insulin receptor (ref (18)) was less than 0.2%.

Regarding “[ValB6]winsulin: literature insulin analogue, Val at B6”, in the data set on insulin receptor (ref (14)), the relative affinity is recorded as 3.3%.

Broadly, the Kd is a measure of binding affinity in units of concentration. For insulin (from UniProt P01308), the Kd in data set [1] was 0.3 nM.

On to “insulin glulisine: [LysB3,GluB29]-insulin analogue”, for which the affinity entry in the data set with insulin receptor (relative to wild type, ref [33]) was “wild-type-like affinity”.
